Results from patent publication US9453062B2, “Glucose dependent insulinotropic polypeptide analogs, pharmaceutical compositions and use thereof” (Beijing Hanmi Pharmaceutical Co., Ltd., priority 2011, dated 2016).
Where two headings read alike, the source gives them in different places. Where a SMILES comes first, the peptide text is derived from it. Where no end group is shown, it is not given here. [ ]: non-standard residue; d: D form. Phg = N[C@H](C(=O)O)c1ccccc1; Nle = CCCC[C@H](N)C(=O)O; Aib = CC(C)(N)C(=O)O

Tests used:
hGLP-1R = target: T1, hGLP-1R (Homo sapiens, UniProt P43220); assay: hGLP-1R-mediated cAMP induction assay in CHO cell line; format: cell-based;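 also: CHO cells expressing human GLP-1R, treated 30 min at 37 °C, intracellular cAMP measured by competitive fluorescent immunoassay and converted via a cAMP standard curve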
T1 construct: expressed in transfected cells; host or cells: CHO

hGIPR = target: T2, hGIPR (Homo sapiens, UniProt P48546); assay: hGIPR-mediated cAMP induction assay in CHO cell line; format: cell-based; conditions: for GIP Receptor Relative Potency: against native GIP
T2 construct: expressed in transfected cells; host or cells: CHO
T2 sequence (P48546 22-466): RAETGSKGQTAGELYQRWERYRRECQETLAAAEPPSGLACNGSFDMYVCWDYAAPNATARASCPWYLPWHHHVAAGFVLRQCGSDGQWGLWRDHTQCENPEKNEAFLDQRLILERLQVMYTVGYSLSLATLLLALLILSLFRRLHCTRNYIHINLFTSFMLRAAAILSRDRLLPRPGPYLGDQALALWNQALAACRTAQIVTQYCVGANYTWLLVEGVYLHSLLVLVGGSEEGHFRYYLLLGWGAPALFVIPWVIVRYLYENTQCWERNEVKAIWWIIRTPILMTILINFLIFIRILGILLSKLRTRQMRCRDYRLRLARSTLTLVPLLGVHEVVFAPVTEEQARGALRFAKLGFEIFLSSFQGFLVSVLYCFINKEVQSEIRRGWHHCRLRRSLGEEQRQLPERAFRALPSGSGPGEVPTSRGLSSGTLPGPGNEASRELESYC

T1 sequence (P43220 24-463): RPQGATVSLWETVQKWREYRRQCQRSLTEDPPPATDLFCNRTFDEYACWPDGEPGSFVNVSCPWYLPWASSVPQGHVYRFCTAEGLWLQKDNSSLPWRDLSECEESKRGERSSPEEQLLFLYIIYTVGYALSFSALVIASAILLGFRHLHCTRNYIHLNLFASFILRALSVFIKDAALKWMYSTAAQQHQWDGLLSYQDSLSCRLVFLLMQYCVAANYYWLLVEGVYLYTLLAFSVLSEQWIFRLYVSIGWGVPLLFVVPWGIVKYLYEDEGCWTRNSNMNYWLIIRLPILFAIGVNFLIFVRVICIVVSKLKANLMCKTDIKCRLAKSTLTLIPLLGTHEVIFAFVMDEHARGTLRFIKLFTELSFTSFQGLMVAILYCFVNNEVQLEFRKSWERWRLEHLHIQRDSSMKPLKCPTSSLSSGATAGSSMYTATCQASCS

Tyr-Aib-Glu-Gly-Thr-Phe-Thr-Ser-Asp-Tyr-Ser-Ile-Tyr-Nle-Glu-Lys-Glu-Ala-Gln-Gln-Asp-Phe-Val-Asn-Trp-Leu-Leu-Ala-Gln(NH2) (Y[Aib]EGTFTSDYSIY[Nle]EKEAQQDFVNWLLAQ-NH2) [Analog 020]
GLP-1R activation (GLP-1 activity) against native GLP-1 (hGLP-1R): less than 1%

CC[C@H](C)[C@H](NC(=O)[C@H](CO)NC(=O)[C@H](Cc1ccc(O)cc1)NC(=O)[C@H](CC(=O)O)NC(=O)[C@H](CO)NC(=O)[C@@H](NC(=O)[C@H](Cc1ccccc1)NC(=O)[C@@H](NC(=O)CNC(=O)[C@H](CCC(=O)O)NC(=O)C(C)(C)NC(=O)[C@@H](N)Cc1ccc(O)cc1)[C@@H](C)O)[C@@H](C)O)C(=O)N[C@@H](Cc1ccc(O)cc1)C(=O)N[C@@H](CCSC)C(=O)N[C@@H](CCC(=O)O)C(=O)N[C@@H](CCCCN)C(=O)N[C@H](C(=O)N[C@@H](Cc1c[nH]cn1)C(=O)N[C@@H](CCC(N)=O)C(=O)N[C@@H](CCC(N)=O)C(=O)N[C@@H](CC(=O)O)C(=O)N[C@@H](Cc1ccccc1)C(=O)N[C@H](C(=O)N[C@@H](CC(N)=O)C(=O)N[C@@H](Cc1c[nH]c2ccccc12)C(=O)N[C@@H](CC(C)C)C(=O)N[C@@H](CC(C)C)C(=O)N[C@@H](C)C(=O)N[C@@H](CCC(N)=O)C(N)=O)C(C)C)[C@@H](C)CC [Compound 003] (H-Y[Aib]EGTFTSDYSIYMEKIHQQDFVNWLLAQ-NH2; N-terminus assumed)
GIP Receptor Relative Potency (hGIPR; Table 3): 77.7

Tyr-Aib-Glu-Gly-Thr-Phe-Thr-Ser-Asp-Tyr-Ser-Ile-Tyr-Met-Glu-Lys-Ile-His-Gln-Gln-Asp-Phe-Val-Asn-Trp-Leu-Leu-Ala-Gln(NH2) (Y[Aib]EGTFTSDYSIYMEKIHQQDFVNWLLAQ-NH2) [Analog 003]
GLP-1R activation (GLP-1 activity) against native GLP-1 (hGLP-1R): ~0.2%

CCCC[C@H](NC(=O)[C@H](C)NC(=O)[C@@H](NC(=O)[C@H](CO)NC(=O)[C@H](Cc1ccc(O)cc1)NC(=O)[C@H](CC(=O)O)NC(=O)[C@H](CO)NC(=O)[C@@H](NC(=O)[C@H](Cc1ccccc1)NC(=O)[C@@H](NC(=O)CNC(=O)[C@H](CCC(=O)O)NC(=O)C(C)(C)NC(=O)[C@@H](N)Cc1ccc(O)cc1)[C@@H](C)O)[C@@H](C)CC)[C@@H](C)CC)C(=O)N[C@@H](CCC(=O)O)C(=O)N[C@@H](CCCCN)C(=O)N[C@H](C(=O)N[C@@H](Cc1c[nH]cn1)C(=O)N[C@@H](CCC(N)=O)C(=O)N[C@@H](CCC(N)=O)C(=O)N[C@@H](CC(=O)O)C(=O)N[C@@H](Cc1ccccc1)C(=O)N[C@H](C(=O)N[C@@H](CC(N)=O)C(=O)N[C@@H](Cc1c[nH]c2ccccc12)C(=O)N[C@@H](CC(C)C)C(=O)N[C@@H](CC(C)C)C(=O)N[C@@H](C)C(=O)N[C@@H](CCC(N)=O)C(N)=O)C(C)C)[C@@H](C)CC [Compound 010] (H-Y[Aib]EGTFISDYSIA[Nle]EKIHQQDFVNWLLAQ-NH2; N-terminus assumed)
EC50 (hGLP-1R): > 2000 nM

Tyr-Ala-Glu-Gly-Thr-Phe-Ile-Ser-Asp-Tyr-Ser-Ile-Ala-Met-Asp-Lys-Ile-His-Gln-Gln-Asp-Phe-Val-Asn-Trp-Leu-Leu-Ala-Gln(NH2) (YAEGTFISDYSIAMDKIHQQDFVNWLLAQ-NH2; listed as Homo sapiens) [GIP (1-29), initial scaffold, reference compound]
GIPR activation in vitro, in words (hGIPR; cAMP induction, liraglutide up to 1 μM): equivalent GIPR activation in vitro to that of the full-length GIP (1-42)

CCCC[C@H](NC(=O)[C@@H](NC(=O)[C@@H](NC(=O)[C@H](CO)NC(=O)[C@H](Cc1ccc(O)cc1)NC(=O)[C@H](CC(=O)O)NC(=O)[C@H](CO)NC(=O)[C@@H](NC(=O)[C@H](Cc1ccccc1)NC(=O)[C@@H](NC(=O)CNC(=O)[C@H](CCC(=O)O)NC(=O)C(C)(C)NC(=O)[C@@H](N)Cc1ccc(O)cc1)[C@@H](C)O)[C@@H](C)O)[C@@H](C)CC)c1ccccc1)C(=O)N[C@@H](CCC(=O)O)C(=O)N[C@@H](CCCCN)C(=O)N[C@H](C(=O)N[C@@H](Cc1c[nH]cn1)C(=O)N[C@@H](CCC(N)=O)C(=O)N[C@@H](CCC(N)=O)C(=O)N[C@@H](CC(=O)O)C(=O)N[C@@H](Cc1ccccc1)C(=O)N[C@H](C(=O)N[C@@H](CC(N)=O)C(=O)N[C@@H](Cc1c[nH]c2ccccc12)C(=O)N[C@@H](CC(C)C)C(=O)N[C@@H](CC(C)C)C(=O)N[C@@H](C)C(=O)N[C@@H](CCC(N)=O)C(N)=O)C(C)C)[C@@H](C)CC [Compound 009] (H-Y[Aib]EGTFTSDYSI[Phg][Nle]EKIHQQDFVNWLLAQ-NH2; N-terminus assumed)
EC50 (hGLP-1R): > 2000 nM

CC[C@H](C)[C@H](NC(=O)[C@H](Cc1ccccc1)NC(=O)[C@H](CCC(=O)O)NC(=O)[C@H](CCC(=O)O)NC(=O)[C@@H](NC(=O)[C@H](C)NC(=O)[C@H](CCC(=O)O)NC(=O)[C@H](CCCCN)NC(=O)[C@H](CCC(=O)O)NC(=O)[C@H](CCSC)NC(=O)[C@H](Cc1ccc(O)cc1)NC(=O)[C@@H](NC(=O)[C@H](CO)NC(=O)[C@H](Cc1ccc(O)cc1)NC(=O)[C@H](CC(=O)O)NC(=O)[C@H](CO)NC(=O)[C@@H](NC(=O)[C@H](Cc1ccccc1)NC(=O)[C@@H](NC(=O)CNC(=O)[C@H](CCC(=O)O)NC(=O)C(C)(C)NC(=O)[C@@H](N)Cc1ccc(O)cc1)[C@@H](C)O)[C@@H](C)O)[C@@H](C)CC)C(C)C)C(=O)N[C@@H](C)C(=O)N[C@@H](Cc1c[nH]c2ccccc12)C(=O)N[C@@H](CC(C)C)C(=O)N[C@H](C(=O)N[C@@H](CCCCN)C(=O)NCC(N)=O)C(C)C [Compound 053-1] (H-Y[Aib]EGTFTSDYSIYMEKEAVEEFIAWLVKG-NH2; N-terminus assumed)
EC50 (hGIPR; Table 3, CHO hGIPR cells): 0.5 nM
GIP Receptor Relative Potency (hGIPR; Table 3): 34

CCCC[C@H](NC(=O)[C@H](Cc1ccc(O)cc1)NC(=O)[C@@H](NC(=O)[C@H](CO)NC(=O)[C@H](Cc1ccc(O)cc1)NC(=O)[C@H](CC(=O)O)NC(=O)[C@H](CO)NC(=O)[C@@H](NC(=O)[C@H](Cc1ccccc1)NC(=O)[C@@H](NC(=O)CNC(=O)[C@H](CCC(=O)O)NC(=O)C(C)(C)NC(=O)[C@@H](N)Cc1ccc(O)cc1)[C@@H](C)O)[C@@H](C)O)[C@@H](C)CC)C(=O)N[C@@H](CCC(=O)O)C(=O)N[C@@H](CCCCN)C(=O)N[C@H](C(=O)N[C@@H](Cc1c[nH]cn1)C(=O)N[C@@H](CCC(N)=O)C(=O)N[C@@H](CCC(N)=O)C(=O)N[C@@H](CC(=O)O)C(=O)N[C@@H](Cc1ccccc1)C(=O)N[C@H](C(=O)N[C@@H](CC(N)=O)C(=O)N[C@@H](Cc1c[nH]c2ccccc12)C(=O)N[C@@H](CC(C)C)C(=O)N[C@H](C(=O)N[C@@H](CCCNC(=N)N)C(=O)N[C@@H](CCC(N)=O)C(N)=O)C(C)C)C(C)C)[C@@H](C)CC [Compound 021] (H-Y[Aib]EGTFTSDYSIY[Nle]EKIHQQDFVNWLVRQ-NH2; N-terminus assumed)
GIP Receptor Relative Potency (hGIPR; Table 3): 21.7

CC[C@H](C)[C@H](NC(=O)[C@H](Cc1ccccc1)NC(=O)[C@H](CCC(=O)O)NC(=O)[C@H](CCCCN)NC(=O)[C@@H](NC(=O)[C@H](C)NC(=O)[C@H](CCC(=O)O)NC(=O)[C@H](CCCCN)NC(=O)[C@H](CCC(=O)O)NC(=O)[C@H](CCSC)NC(=O)[C@H](Cc1ccc(O)cc1)NC(=O)[C@@H](NC(=O)[C@H](CO)NC(=O)[C@H](Cc1ccc(O)cc1)NC(=O)[C@H](CC(=O)O)NC(=O)[C@H](CO)NC(=O)[C@@H](NC(=O)[C@H](Cc1ccccc1)NC(=O)[C@@H](NC(=O)CNC(=O)[C@H](CCC(=O)O)NC(=O)C(C)(C)NC(=O)[C@@H](N)Cc1ccc(O)cc1)[C@@H](C)O)[C@@H](C)O)[C@@H](C)CC)C(C)C)C(=O)N[C@@H](C)C(=O)N[C@@H](Cc1c[nH]c2ccccc12)C(=O)N[C@@H](CC(C)C)C(=O)N[C@H](C(=O)N[C@@H](CCCCN)C(=O)NCC(N)=O)C(C)C [Compound 057] (H-Y[Aib]EGTFTSDYSIYMEKEAVKEFIAWLVKG-NH2; N-terminus assumed)
EC50 (hGIPR; Table 3, CHO hGIPR cells): 0.57 nM
GIP Receptor Relative Potency (hGIPR; Table 3): 36.8

CCCC[C@H](NC(=O)[C@H](Cc1ccc(O)cc1)NC(=O)[C@@H](NC(=O)[C@H](CO)NC(=O)[C@H](Cc1ccc(O)cc1)NC(=O)[C@H](CC(=O)O)NC(=O)[C@H](CO)NC(=O)[C@@H](NC(=O)[C@H](Cc1ccccc1)NC(=O)[C@@H](NC(=O)CNC(=O)[C@H](CCC(=O)O)NC(=O)C(C)(C)NC(=O)[C@@H](N)Cc1ccc(O)cc1)[C@@H](C)O)[C@@H](C)O)[C@@H](C)CC)C(=O)N[C@@H](CCC(=O)O)C(=O)N[C@@H](CCCCN)C(=O)N[C@@H](CCC(=O)O)C(=O)N[C@@H](C)C(=O)N[C@@H](CCC(N)=O)C(=O)N[C@@H](CCC(N)=O)C(=O)N[C@@H](CC(=O)O)C(=O)N[C@@H](Cc1ccccc1)C(=O)N[C@H](C(=O)N[C@@H](CC(N)=O)C(=O)N[C@@H](Cc1c[nH]c2ccccc12)C(=O)N[C@@H](CC(C)C)C(=O)N[C@@H](CC(C)C)C(=O)N[C@@H](C)C(=O)N[C@@H](CCC(N)=O)C(N)=O)C(C)C [Compound 020] (H-Y[Aib]EGTFTSDYSIY[Nle]EKEAQQDFVNWLLAQ-NH2; N-terminus assumed)
EC50 (hGIPR): 0.27 nM
GIP Receptor Relative Potency (hGIPR; Table 3): 51.8
